Test results reported in ChEMBL document CHEMBL2440042, “Anti-proliferative activity of hydnocarpin, a natural lignan, is associated with the suppression of Wnt/β-catenin signaling pathway in colon cancer cells” (Bioorg Med Chem Lett, 2013).
Active and inactive are the calls of the source. The rule behind the calls is not given here.

How the values were obtained:
SW480 [1] = test: Inhibition of Wnt/beta-catenin signaling pathway in human SW480 cells assessed as Axin1 protein expression at 5 uM after 24 hrs by Western blotting analysis relative to vehicle-treated control
SW480 [2] = test: Inhibition of Wnt/beta-catenin signaling pathway in human SW480 cells assessed as Axin1 protein expression at 20 uM after 24 hrs by Western blotting analysis relative to vehicle-treated control
SW480 [3] = test: Inhibition of Wnt/beta-catenin signaling pathway in human SW480 cells assessed as dvl2 protein expression at 5 uM after 12 hrs by Western blotting analysis relative to vehicle-treated control
SW480 [4] = test: Inhibition of Wnt/beta-catenin signaling pathway in human SW480 cells assessed as increase in phosphorylation of beta-catenin at Ser45 at 5 uM after 12 hrs by Western blotting analysis relative to vehicle-treated control
SW480 [5] = test: Inhibition of Wnt/beta-catenin signaling pathway in human SW480 cells assessed as beta-catenin protein expression at 10 uM after 24 hrs by Western blotting analysis relative to vehicle-treated control
SW480 [6] = test: Inhibition of Wnt/beta-catenin signaling pathway in human SW480 cells assessed as Axin2 protein expression at 10 uM after 24 hrs by Immunoblotting analysis relative to vehicle-treated control
SW480 [7] = test: Inhibition of Wnt/beta-catenin signaling pathway in human SW480 cells assessed as Axin1 protein expression at 10 uM after 12 hrs by Western blotting analysis relative to vehicle-treated control
SW480 [8] = test: Inhibition of Wnt/beta-catenin signaling pathway in human SW480 cells assessed as GSK3-beta protein expression at 10 uM after 24 hrs by Western blotting analysis relative to vehicle-treated control
SW480 [9] = test: Inhibition of Wnt/beta-catenin signaling pathway in human SW480 cells assessed as GSK3-beta protein expression at 20 uM after 24 hrs by Western blotting analysis relative to vehicle-treated control
SW480 [10] = test: Inhibition of Wnt/beta-catenin signaling pathway in human SW480 cells assessed as CK1-alpha protein expression at 20 uM after 12 hrs by Western blotting analysis relative to vehicle-treated control
SW480 [11] = test: Inhibition of Wnt/beta-catenin signaling pathway in human SW480 cells assessed as dvl3 protein expression at 5 uM after 12 hrs by Western blotting analysis relative to vehicle-treated control
SW480 [12] = test: Inhibition of Wnt/beta-catenin signaling pathway in human SW480 cells assessed as beta-catenin protein expression at 5 uM after 12 hrs by Western blotting analysis relative to vehicle-treated control
HEK293 = test: Inhibition of Wnt/beta-catenin signaling pathway in human HEK293 cells at 20 uM after 24 hrs by dual luciferase reporter gene assay relative to vehicle-treated control; conditions: HEK293, 24 h
[13] = molecular target: Axin1/beta-catenin (Homo sapiens) (UniProt P35222+O15169); test: Increase in axin1-beta-catenin interaction in human SW480 cells at 5 to 10 uM after 24 hrs by immunoprecipitation; type: cell-based
SW480 [14] = test: Inhibition of Wnt/beta-catenin signaling pathway in human SW480 cells assessed as Axin1 protein expression at 20 uM after 12 hrs by Western blotting analysis relative to vehicle-treated control
SW480 [15] = test: Inhibition of Wnt/beta-catenin signaling pathway in human SW480 cells assessed as beta-catenin protein expression at 10 uM after 24 hrs by Immunoblotting analysis relative to vehicle-treated control
SW480 [16] = test: Inhibition of Wnt/beta-catenin signaling pathway in human SW480 cells assessed as Axin2 protein expression at 20 uM after 24 hrs by Western blotting analysis relative to vehicle-treated control
SW480 [17] = test: Inhibition of Wnt/beta-catenin signaling pathway in human SW480 cells assessed as phosphorylated (S45) beta-catenin protein expression at 10 uM after 24 hrs by Western blotting analysis relative to vehicle-treated control
SW480 [18] = test: Growth inhibition in human SW480 cells at 1 to 20 uM after 72 hrs by SRB assay in presence of axin1 siRNA; type: functional, cell-based
SW480 [19] = test: Inhibition of Wnt/beta-catenin signaling pathway in human SW480 cells assessed as beta-catenin protein expression at 20 uM after 24 hrs by Western blotting analysis relative to vehicle-treated control
SW480 [20] = test: Antiproliferative activity against human SW480 cells assessed as growth inhibition after 72 hrs by SRB assay; type: functional, cell-based; conditions: SW480, 72 h
SW480 [21] = test: Inhibition of Wnt/beta-catenin signaling pathway in human SW480 cells assessed as dvl3 protein expression at 20 uM after 12 hrs by Western blotting analysis relative to vehicle-treated control
SW480 [22] = test: Inhibition of Wnt/beta-catenin signaling pathway in human SW480 cells assessed as dvl3 protein expression at 10 uM after 12 hrs by Western blotting analysis relative to vehicle-treated control
SW480 [23] = test: Inhibition of Wnt/beta-catenin signaling pathway in human SW480 cells assessed as Axin1 protein expression at 10 uM after 24 hrs by Immunoblotting analysis relative to vehicle-treated control
SW480 [24] = test: Inhibition of Wnt/beta-catenin signaling pathway in human SW480 cells assessed as increase in phosphorylation of beta-catenin at Ser45 at 20 uM after 12 hrs by Western blotting analysis relative to vehicle-treated control
SW480 [25] = test: Inhibition of Wnt/beta-catenin signaling pathway in human SW480 cells assessed as phosphorylated (S45) beta-catenin protein expression at 20 uM after 24 hrs by Western blotting analysis relative to vehicle-treated control
SW480 [26] = test: Inhibition of Wnt/beta-catenin signaling pathway in human SW480 cells after 24 hrs by TOPflash luciferase reporter gene assay relative to vehicle-treated control; type: cell-based
SW480 [27] = test: Inhibition of Wnt/beta-catenin signaling pathway in human SW480 cells assessed as beta-catenin protein expression at 5 uM after 24 hrs by Immunoblotting analysis relative to vehicle-treated control
SW480 [28] = test: Inhibition of Wnt/beta-catenin signaling pathway in human SW480 cells assessed as Axin1 protein expression at 5 uM after 12 hrs by Western blotting analysis relative to vehicle-treated control
SW480 [29] = test: Inhibition of Wnt/beta-catenin signaling pathway in human SW480 cells assessed as Axin2 protein expression at 5 uM after 24 hrs by Immunoblotting analysis relative to vehicle-treated control
SW480 [30] = test: Inhibition of Wnt/beta-catenin signaling pathway in human SW480 cells after 24 hrs by FOPflash luciferase reporter gene assay relative to vehicle-treated control; type: cell-based
SW480 [31] = test: Inhibition of Wnt/beta-catenin signaling pathway in human SW480 cells assessed as increase in phosphorylation of beta-catenin at Ser45 after 12 hrs by Western blotting analysis relative to vehicle-treated control; type: cell-based
SW480 [32] = test: Inhibition of Wnt/beta-catenin signaling pathway in human SW480 cells assessed as dvl1 protein expression at 10 uM after 12 hrs by Western blotting analysis relative to vehicle-treated control
SW480 [33] = test: Inhibition of Wnt/beta-catenin signaling pathway in human SW480 cells assessed as Axin1 protein expression at 10 uM after 24 hrs by Western blotting analysis relative to vehicle-treated control

SMILES: COc1cc([C@H]2Oc3ccc(-c4cc(=O)c5c(O)cc(O)cc5o4)cc3O[C@@H]2CO)ccc1O (relative stereo)
- fold change (FC) (SW480 [1]): 1.7
- fold change (FC) (SW480 [2]): 4.2
- fold change (FC) (SW480 [3]): 1.2
- fold change (FC) (SW480 [4]): 3
- fold change (FC) (SW480 [5]): 0.8
- fold change (FC) (SW480 [6]): 1.2
- fold change (FC) (SW480 [7]): 2.2
- fold change (FC) (SW480 [8]): 1.2
- fold change (FC) (SW480 [9]): 1
- fold change (FC) (SW480 [10]): 1.2
- fold change (FC) (SW480 [11]): 1
- fold change (FC) (SW480 [12]): 0.8
- inhibition at 20 µM (HEK293): 61.6%
- Activity [13]: Active
- fold change (FC) (SW480 [14]): 2.7
- fold change (FC) (SW480 [15]): 0.7
- fold change (FC) (SW480 [16]): 6.7
- fold change (FC) (SW480 [17]): 2.1
- growth inhibition (GI) (SW480 [18]): inactive
- fold change (FC) (SW480 [19]): 0.7
- IC50 (SW480 [20]): 20.3 µM
- fold change (FC) (SW480 [21]): 1.1
- fold change (FC) (SW480 [22]): 1
- fold change (FC) (SW480 [23]): 1.5
- fold change (FC) (SW480 [24]): 4.9
- fold change (FC) (SW480 [25]): 2.4
- inhibition (SW480 [26]): Dose-dependent effect
- fold change (FC) (SW480 [27]): 0.8
- fold change (FC) (SW480 [28]): 1.9
- fold change (FC) (SW480 [29]): 1
- inhibition (SW480 [30]): inactive
- inhibition (SW480 [31]): Dose-dependent effect
- fold change (FC) (SW480 [32]): 1
- fold change (FC) (SW480 [33]): 3.5
